Results on 1 compound are retold here after US20140163082A1, “PYRAZOLYL COMPOUNDS FOR USE IN REVERSING REACTIVE GLIOSIS” (priority 2011, published 2014).

The test system of one assay is rMC-1 cells. In words: Real time RT-PCR analysis, in vitro, rMC-1. It counts as cell-based. The procedure:
A transformed Müller cell line [rMC-1] were grown in cell cultures in DMEM supplemented with 15% FBS, as well as with a fungicide mixture and 0.5% gentamicin in a humidified atmosphere of 5% CO2/95% air. Medium was changed every 2-3 days, and cells were grown to confluence in a 150-mm dish. Cells were split into 60-mm dishes and were used in the experiments when confluent. […] cells are immortalized rat retinal neurosensory/neuoroglial progenitor cells, by transfection with Adenovirus 12S E1A into the neonatal retinal tissue. […] cells express genes characteristic of neurons, as well as functional neuronal properties. […] cells were cultured in DMEM/F12 medium in a 1:1 mixture, supplemented with 5% FBS, 1.5 mM L-glutamine, 7.5 mM sodium pyruvate, 0.1 mM nonessential amino acids, 1×MEM, 0.37% sodium bicarbonate and 10 μg/ml gentamicin. Cells were incubated at 37° C. in the presence of 5% CO2. Human retinal microvascular endothelial cells [[…]][40,000 cells/well] were seeded in a 96-well plate and allowed to adhere overnight and incubated at 37° C. in normoxia. Cells were then cultured in 150 μl of CS-C medium supplemented with 10% FBS and in the presence of 1-100 μM YC-1 or DMSO [0.2%]. Cells were placed in airtight chambers [BioSpherix, Redfield, N.Y.] and the O2 tension was maintained at 1.2% by using Pro-Ox Model 110 O2 regulator [BioSpherix, Redfield, N.Y.]. The chamber was purged with a gas mixture of 5.32% CO2, and 93.48% N2. […] We used the primers summarized in [FIG. 6C] for RT-PCR. Gene-specific molecular beacons and primers were designed to encompass the genes of interest, with beacon's annealing site to overlap with the exon-exon junctions for additional specificity [Beacon Designer 6.0, Premier Biosoft International, Palo Alto, Calif., USA]. Threshold cycle [Ct] values for the different samples were utilized for the calculation of gene expression fold change using the formula 2 to the minus power of delta delta ct. Fold changes in the HIF-1, VEGF, PDGF-B, GFAP and iNOS gene relative to the β-actin endogenous control gene were determined by the following equation: fold change=2-Δ[ΔC T], where change in threshold cycle [ΔCT]=CT [gene of interest]-CT [β-actin] and Δ [ΔCT]=ΔCT [treated]-ΔCT [untreated].
For orientation: Quantitative PCR measures a nucleic acid by following its amplification.

In another assay the test system is ischemic retinas. Briefly: Immunohistochemical analysis, in vivo (OIR retinas). On the set-up: species or system C57BL/6J mice. The note with it: OIR mice, vs DMSO-treated retinas. The procedure:
Retinal NV was induced in newborn mice as described previously. Briefly, P7 mice were exposed with their nursing mother, for 5 days [between P7 and P12] to hyperoxic conditions, by incubating them in an airtight chamber [PROOX 110 chamber O2 controller; Biospherix Ltd., Redfield, N.Y.] ventilated by a mixture of O2 and air to a final oxygen fraction of 75±2%. These incubation conditions induced vaso-obliteration and subsequent cessation of vascular development in the capillary beds of the central retina. At P12, the mice were allowed to recover in normal room air conditions and maintained for another 5 days [till P17], the day in which peak disease occurs. A condition of relative hypoxia resulted between P12 and P17, and extensive retinal NV developed in 100% of the mice. Age-matched animals with the hyperoxia-exposed groups were maintained identically, except they were exposed to room air […], 79% N2] for the entire duration of the experiment. All animals were examined and sacrificed on the same days.
A group of hyperoxia-exposed animals [n=15] were injected intravitreally [into both eyes] at P12 and P15 with 3 μl of YC-1 [100 μM] [drug-treated group]. Another group of hyperoxiaexposed mice [n=15] were injected intravitreally [into both eyes] at P12 and P15 with 3 μl of DMSO [0.2% [v/v]] [mock-treated group]. Non-treated mice grown under ambient conditions, non-treated hyperoxia-exposed mice, DMSO-treated hyperoxia-exposed mice and YC-1-treated hyperoxia-exposed mice, were all examined at different critical time points for qualitative assessment of the retinal vasculature by fluorescein angiography.
Mouse retinas were dissected and prepared for immunohistochemical analysis, fixed in 4% paraformaldehyde in 0.1 M PBS for 15 min at room temperature and embedded in paraffin, sectioned [5 μm]. Tissue sections were deparaffinized, hydrated, and later exposed to heat induced antigen retrieval using a microwave oven [three 5-minute cycles in citrate buffer, pH 6.0], endogenous peroxidase was abolished with methanol, and hydrogen peroxide and nonspecific background staining was blocked by incubating the tissue sections for 5 minutes in normal swine serum. Subsequently, all slides were washed three times in PBS, and incubated for 1 hour with primary anti-[HIF-1α, VEGF, PDGF-B, GFAP, iNOS, and β-actin] antibodies. The sections were washed with TBST and incubated with EnVision Polymer HRP secondary antibody [DAKO, Carpinteria, Calif.] for 30 minutes. All slides were stained with DAB solution and counterstained with hematoxylin. Slides were cover slipped [Permount; Fisher Scientific, Fairlawn, N.J.] and examined by light microscopy. Negative controls were performed by omitting the primary antibodies. Sections were photographed under a microscope [Zeiss Axiovert 135, Thornwood, N.Y.], and images were acquired a digital camera [AxioCam, N.Y.]. All retinas were examined at X60 objective. The staining intensity in our series ranged from a weak blush to moderate or strong. The amount of cells staining with the antibody was further categorized as focal [<10%], patchy [10%-50%], and diffuse [>50%]. For meaningful semiquantitative analysis, focal and/or weak staining was considered equivocal staining, and patchy or diffuse staining was either subcategorized as either moderate or strong staining. All Immunohistochemical analyses were measured by Metamorph digital image software [Molecular Devices, Sunnyvale, Calif.].

The mark [1] stands for this setting: rMC-1, hypoxia 48 hours, YC-1 25-100 μM, vs DMSO-treated hypoxic cells.

With `OCc1ccc(-c2nn(Cc3ccccc3)c3ccccc23)o1` [YC-1, 3-(5′-hydroxymethyl-2′-furyl)-1-benzylindazole], in the assay on rMC-1 cells (setting [1]), the “PDGF-B mRNA level” value is recorded as “significant dose-dependent attenuations”, the “VEGF mRNA level” value was “significant dose-dependent attenuations” and the “iNOS mRNA level” value is “significant dose-dependent attenuations”. Moreover, the “GFAP mRNA level” value in the assay with rMC-1 cells (rMC-1, hypoxia, YC-1 25-100 μM, vs DMSO-treated hypoxic cells, normalized to β-actin) is “significant dose-dependent attenuations”. In addition, the HIF-1α message level entry in the assay with rMC-1 cells (rMC-1, pre- vs post-YC-1 treatment) is “no differences”. Further, in the assay with ischemic retinas, the “GFAP immunoexpression in retina” value is listed as “significant down-regulation”, the “HIF-1 immunoexpression in retina” value is recorded as “significant inhibition”, the “PDGF-B immunoreactivity in retina” value was “significantly inhibited” and the “VEGF immunoexpression in retina” value was “significant inhibition”. For the same compound, the “iNOS immunoreactivities in retina” value with ischemic retinas is “significantly down-regulated”.
